Reference: US10723695B2, “Microbiocidal phenylamidine derivatives” (SYNGENTA PARTICIPATIONS AG, priority 2015, dated 2020)

How the values were obtained:
[1] = tested on: Puccinia recondita f. sp. tritici; experiment: Puccinia recondita f. sp. tritici / wheat / leaf disc curative (brown rust); format: in vivo; details: foliar, 24 h, wheat leaf segments cv. Kanzler, curative (applied 1 day after inoculation), compared to untreated control leaf disks, read-out: disease control
Experimental: Puccinia recondita f. sp. tritici/Wheat/Leaf Disc Curative (Brown Rust) Wheat leaf segments cv. Kanzler are placed on agar in multiwell plates (24-well format). The leaf segments are inoculated with a spore suspension of the fungus. Plates were stored in darkness at 19° C. and 75% rh. The formulated test compound diluted in water was applied 1 day after inoculation.

[2] = tested on: Puccinia recondita f. sp. tritici; experiment: Puccinia recondita f. sp. tritici / wheat / leaf disc preventative (brown rust); format: in vivo; details: foliar, wheat leaf segments cv. Kanzler, compared to untreated control leaf disks, read-out: disease control
Experimental: Puccinia recondita f. sp. tritici/Wheat/Leaf Disc Preventative (Brown Rust) Wheat leaf segments cv. Kanzler were placed on agar in multiwell plates (24-well format) and sprayed with the formulated test compound diluted in water. The leaf disks were inoculated with a spore suspension of the fungus 1 day after application. The inoculated leaf segments were incubated at 19° C. and 75% rh under a light regime of 12 h light/12 h darkness in a climate cabinet and the activity of a compound was assessed as percent disease control compared to untreated when an appropriate level of disease damage appears in untreated check leaf segments (7-9 days after application).

[3] = tested on: Blumeria graminis f. sp. tritici (Erysiphe graminis f. sp. tritici); experiment: Blumeria graminis f. sp. tritici / wheat / leaf disc preventative (powdery mildew on wheat); format: in vivo; details: foliar, wheat leaf segments cv. Kanzler, compared to untreated control leaf disks, read-out: disease control
Source text: Blumeria graminis f. sp. tritici (Erysiphe graminis f. sp. tritici)/Wheat/Leaf Disc Preventative (Powdery Mildew on Wheat) Wheat leaf segments cv. Kanzler were placed on agar in a multiwell plate (24-well format) and sprayed with the formulated test compound diluted in water. The leaf disks were inoculated by shaking powdery mildew infected plants above the test plates 1 day after application.

[4] = tested on: Phakopsora pachyrhizi; experiment: Phakopsora pachyrhizi / soybean / leaf disk preventative (soybean rust); format: in vivo; details: foliar, soybean leaf disks, compared to untreated control leaf disks, read-out: disease control
Experimental: Phakopsora pachyrhizi/Soybean/Leaf Disk Preventative (Soybean Rust) Four-week old soybean plants are sprayed in a spray chamber with the formulated test compound diluted in water. Leaf disks are cut from treated plants and placed on agar into 24-well plates one day after application. Leaf disks are inoculated by spraying them with a spore suspension on their lower leaf surface. After an incubation period in a climate cabinet of 24-36 hours in darkness at 20° C. and 75% rh, the leaf disks are then kept at 20° C. with 12 h light/day and 75% rh. The percentage leaf disk area covered by disease is assessed when an appropriate level of disease appears on untreated check plants (12-14 days after application).

Row | Compound | melting point [°C] | pest or weed control at 200 ppm [1] [%] | pest or weed control at 200 ppm [2] [%] | pest or weed control at 200 ppm [3] [%] | pest or weed control at 200 ppm [4] [%]
1 | COc1cc(/N=C/N(C)C(C)C)c(C)cc1C(O)(c1ccccc1)C(F)(F)F (stereo not drawn) [Compound E1.009] | 110 to 111 | ≥ 80 | ≥ 80 | – | –
2 | CCN(C)/C=N/c1cc(OC)c(C(O)(c2ccc(C(F)(F)F)cc2)C(F)(F)F)cc1C (stereo not drawn) [Compound E1.019] | 124 to 126 | ≥ 80 | ≥ 80 | ≥ 80 | –
3 | CCN(C)/C=N/c1cc(OC)c(C(O)(c2ccc(Cl)cc2)C(F)(F)F)cc1C (stereo not drawn) [Compound E1.021] | 134 to 135 | ≥ 80 | ≥ 80 | ≥ 80 | –
4 | CCN(C)/C=N/c1cc(OC)c(C(O)(c2ccc(Br)cc2)C(F)(F)F)cc1C (stereo not drawn) [Compound E1.025] | 127 to 129 | ≥ 80 | ≥ 80 | ≥ 80 | –
5 | CCN(C)/C=N/c1cc(OC)c(C(O)(c2ccccc2SC)C(F)(F)F)cc1C (stereo not drawn) [Compound E1.032] | 104 to 106 | ≥ 80 | ≥ 80 | ≥ 80 | –
6 | CCN(C)/C=N/c1cc(OC)c(C(O)(c2ccccc2S(C)(=O)=O)C(F)(F)F)cc1C (stereo not drawn) [Compound E1.036] | 177 to 180 | ≥ 80 | ≥ 80 | – | –
7 | CCN(C)/C=N/c1cc(OC)c(C(O)(c2ccc(SC(F)(F)F)cc2)C(F)(F)F)cc1C (stereo not drawn) [Compound E1.037] | 64 to 66 | ≥ 80 | – | ≥ 80 | ≥ 80
8 | CCOC(=O)c1ccc(C(O)(c2cc(C)c(/N=C/N(C)CC)cc2OC)C(F)(F)F)cc1 (stereo not drawn) [Compound E1.039] | 118 to 120 | ≥ 80 | – | ≥ 80 | –
9 | CCN(C)/C=N/c1cc(OC)c(C(O)(c2ccc(C#N)cc2)C(F)(F)F)cc1C (stereo not drawn) [Compound E1.040] | 167 to 169 | ≥ 80 | – | ≥ 80 | –
10 | CCN(C)/C=N/c1cc(OC)c(C(O)(c2ccc(SC)cc2)C(F)(F)F)cc1C (stereo not drawn) [Compound E1.041] | 89 to 91 | ≥ 80 | – | ≥ 80 | –
11 | CCN(C)/C=N/c1cc(OC)c(C(O)(c2ccc(O)cc2)C(F)(F)F)cc1C (stereo not drawn) [Compound E1.043] | 240 to 242 | ≥ 80 | – | ≥ 80 | –
12 | CCN(C)/C=N/c1cc(OC)c(C(O)(c2cccc(OC(F)F)c2)C(F)(F)F)cc1C (stereo not drawn) [Compound E1.044] | 119 to 121 | ≥ 80 | – | ≥ 80 | ≥ 80
13 | CCN(C)/C=N/c1cc(OC)c(C(O)(c2ccc(OC(F)F)cc2)C(F)(F)F)cc1C (stereo not drawn) [Compound E1.045] | 85 to 87 | ≥ 80 | – | ≥ 80 | ≥ 80
14 | CCN(C)/C=N/c1cc(OC)c(C(O)(C#Cc2ccccc2)C(F)(F)F)cc1C (stereo not drawn) [Compound E1.073] | 88 to 90 | – | ≥ 80 | – | –
15 | CCN(C)/C=N/c1cc(OC)c(C(O)(C#CC2CCCCC2)C(F)(F)F)cc1C (stereo not drawn) [Compound E1.085] | 62 to 64 | ≥ 80 | – | – | –
16 | CCN(C)/C=N/c1cc(OC)c(C(O)(Cc2ccc(Cl)cc2)C(F)(F)F)cc1C (stereo not drawn) [Compound E1.090] | 63 to 65 | ≥ 80 | – | ≥ 80 | ≥ 80
17 | CCN(C)/C=N/c1cc(OC)c(C(O)(Cc2cc(C)nc(OC)n2)C(F)(F)F)cc1C (stereo not drawn) [Compound E1.094] | 117 to 119 | ≥ 80 | ≥ 80 | ≥ 80 | –
18 | CCN(C)/C=N/c1cc(OC)c(C(O)(c2ccc(OC)nc2)C(F)(F)F)cc1C (stereo not drawn) [Compound E1.107] | 100 to 102 | ≥ 80 | ≥ 80 | ≥ 80 | –
19 | CCN(C)/C=N/c1cc(SC)c(C(O)(c2ccccc2)C(F)(F)F)cc1C (stereo not drawn) [Compound E1.113] | 160 to 165 | ≥ 80 | – | ≥ 80 | –
20 | CCN(C)/C=N/c1cc(OC(C)C)c(C(O)(c2ccccc2)C(F)(F)F)cc1C (stereo not drawn) [Compound E1.115] | 119 to 120 | – | – | – | –
21 | CCN(C)/C=N/c1cc(OC)c(C(O)c2ccccc2)cc1C (stereo not drawn) [Compound E1.123] | – | ≥ 80 | ≥ 80 | ≥ 80 | ≥ 80
22 | COc1cc(/N=C/N(C)C(C)C)c(C)cc1C(O)(c1ccc(F)c(F)c1)C(F)(F)F (stereo not drawn) [Compound E1.127] | 116 to 118 | – | – | – | –
23 | CCN(C)/C=N/c1cc(OC)c(C(O)(c2ccc(F)c(F)c2)C(F)(F)F)cc1C (stereo not drawn) [Compound E1.128] | 108 to 110 | – | – | – | –
24 | COc1cc(/N=C/N(C)C(C)C)c(C)cc1C(O)(c1cccc(F)c1C)C(F)(F)F (stereo not drawn) [Compound E1.131] | 127 to 129 | – | – | – | –

Row | Compound | melting point [°C] | pest or weed control at 200 ppm [1] [%] | pest or weed control at 200 ppm [2] [%] | pest or weed control at 200 ppm [3] [%] | pest or weed control at 200 ppm [4] [%]
25 | CCN(C)/C=N/c1cc(OC)c(C(O)(c2cccc(F)c2C)C(F)(F)F)cc1C (stereo not drawn) [Compound E1.132] | 107 to 109 | – | – | – | –
26 | CCN(/C=N/c1cc(OC)c(C(O)(C(C)C)C(F)(F)F)cc1C)CC (stereo not drawn) [Compound E1.133] | 60 to 62 | – | – | – | –
27 | CCCCC(O)(c1cc(C)c(/N=C/N2CCCC2)cc1OC)C(F)(F)F (stereo not drawn) [Compound E1.134] | 103 to 105 | – | – | – | –
28 | COc1cc(/N=C/N(C)C(C)C)c(C)cc1C(O)(c1cc(F)ccc1F)C(F)(F)F (stereo not drawn) [Compound E1.135] | 112 to 115 | – | – | – | –
29 | COc1cc(/N=C/N2CCCC2)c(C)cc1C(O)(C(C)C)C(F)(F)F (stereo not drawn) [Compound E1.135] | 102 to 104 | – | – | – | –
30 | COc1cc(/N=C/N2CCCC2)c(C)cc1C(O)(c1ccccc1)C(F)(F)F (stereo not drawn) [Compound E1.135] | 157 to 159 | – | – | – | –
31 | COc1cc(/N=C/N(C)C)c(C)cc1C(O)(c1ccccc1)C(F)(F)F (stereo not drawn) [Compound E1.137] | 133 to 135 | – | – | – | –
32 | CCN(/C=N/c1cc(OC)c(C(O)(c2ccccc2)C(F)(F)F)cc1C)CC (stereo not drawn) [Compound E1.139] | 102 to 104 | – | – | – | –
33 | COc1cc(/N=C/N(C)C(C)C)c(C)cc1C(O)(C=C(C)C)C(F)(F)F (stereo not drawn) [Compound E1.141] | 77 to 79 | – | – | – | –
34 | CCN(C)/C=N/c1cc(OC)c(C(O)(c2cccc(F)c2F)C(F)(F)F)cc1C (stereo not drawn) [Compound E1.143] | 130 to 132 | – | – | – | –
35 | COc1cc(/N=C/N(C)C(C)C)c(C)cc1C(O)(c1cccc(F)c1F)C(F)(F)F (stereo not drawn) [Compound E1.144] | 97 to 99 | – | – | – | –
36 | CCN(C)/C=N/c1cc(OC)c(C(O)(c2cc(F)ccc2C)C(F)(F)F)cc1C (stereo not drawn) [Compound E1.145] | 95 to 97 | – | – | – | –
37 | COc1cc(/N=C/N(C)C(C)C)c(C)cc1C(O)(c1cc(F)ccc1C)C(F)(F)F (stereo not drawn) [Compound E1.146] | 116 to 118 | – | – | – | –
38 | CCN(C)/C=N/c1cc(OC)c(C(O)(c2c(F)cccc2F)C(F)(F)F)cc1C (stereo not drawn) [Compound E1.147] | 128 to 130 | – | – | – | –
39 | COc1cc(/N=C/N(C)C(C)C)c(C)cc1C(O)(c1c(F)cccc1F)C(F)(F)F (stereo not drawn) [Compound E1.148] | 119 to 121 | – | – | – | –
40 | COc1cc(/N=C/N(C)C(C)C)c(C)cc1C(O)(c1ccccc1C)C(F)(F)F (stereo not drawn) [Compound E1.148] | 138 to 140 | – | – | – | –
41 | COc1cc(/N=C/N(C)C(C)C)c(C)cc1C(O)(c1cc(F)cc(F)c1)C(F)(F)F (stereo not drawn) [Compound E1.149] | 110 to 112 | – | – | – | –
42 | COc1cc(/N=C/N(C)C(C)C)c(C)cc1C(O)(c1ccccc1F)C(F)(F)F (stereo not drawn) [Compound E1.150] | 86 to 88 | – | – | – | –
43 | COc1cc(/N=C/N(C)C(C)C)c(C)cc1C(O)(c1ccccc1Cl)C(F)(F)F (stereo not drawn) [Compound E1.151] | 67 to 69 | – | – | – | –
44 | COc1cc(/N=C/N(C)C(C)C)c(C)cc1C(O)(c1cccc(F)c1)C(F)(F)F (stereo not drawn) [Compound E1.152] | 92 to 94 | – | – | – | –
45 | CCN(C)/C=N/c1cc(OC)c(C(O)(c2ccccc2)C(F)(F)F)cc1F (stereo not drawn) [Compound E1.153] | 144 to 146 | – | – | – | –
46 | CCN(C)/C=N/c1cc(OC)c(C(O)(c2cccnc2F)C(F)(F)F)cc1C (stereo not drawn) [Compound E1.157] | 113 to 115 | – | – | – | –
47 | COc1cc(/N=C/N(C)C(C)C)c(C)cc1C(O)(c1cccnc1F)C(F)(F)F (stereo not drawn) [Compound E1.158] | 120 to 122 | – | – | – | –
